For data set [1], the system named is Human immunodeficiency virus 2. The data set can be described thus: Antiviral activity against HIV-2 ROD infected in human MT4 cells assessed as protection against virus induced cytopathic effect and measured after 5 days by MTT spectrophotometric assay. In kind it is functional, organism-based. To be noted: Human immunodeficiency virus 2, ROD, MT4, 120 h.
Data set [2] is described as follows: Cytotoxicity against human MT4 cells assessed as reduction in cell viability incubated for 5 days by MTT spectrophotometric assay. In kind it is toxicity, cell-based. The note with it: time 5 day.
Data set [3] addresses Human immunodeficiency virus type 1 reverse transcriptase (Human immunodeficiency virus 1, UniProt Q72547). Description: Inhibition of HIV-1 reverse transcriptase using [2,8-3H]dGTP as substrate by […] assay.
The test system of data set [4] is Human immunodeficiency virus 1. The data set can be described thus: Antiviral activity against HIV-1 L100I mutant infected in human MT4 cells assessed as protection against virus induced cytopathic effect and measured after 5 days by MTT spectrophotometric assay. Format: functional, organism-based. To be noted: Human immunodeficiency virus 1, MT4, 120 h.
In data set [5] the test system is Human immunodeficiency virus 1. The data set can be described thus: Antiviral activity against HIV-1 K103 N mutant infected in human MT4 cells assessed as protection against virus induced cytopathic effect and measured after 5 days by MTT spectrophotometric assay. Format: functional, organism-based. To be noted: Human immunodeficiency virus 1, MT4, 120 h.
Data set [6] has as its system Human immunodeficiency virus 1. The data set can be described thus: Antiviral activity against HIV-1 Y181C mutant infected in human MT4 cells assessed as protection against virus induced cytopathic effect and measured after 5 days by MTT spectrophotometric assay. In kind it is functional, organism-based. To be noted: Human immunodeficiency virus 1, MT4, 120 h.
Data set [7] relates to Human immunodeficiency virus 1. Description: Antiviral activity against HIV-1 Y188L mutant infected in human MT4 cells assessed as protection against virus induced cytopathic effect and measured after 5 days by MTT spectrophotometric assay. Format: functional, organism-based. The note with it: Human immunodeficiency virus 1, MT4, 120 h.
The test system of data set [8] is Human immunodeficiency virus 1. Description: Antiviral activity against HIV-1 E138K mutant infected in human MT4 cells assessed as protection against virus induced cytopathic effect and measured after 5 days by MTT spectrophotometric assay. To be noted: Human immunodeficiency virus 1, MT4, 120 h. In kind it is functional, organism-based.
Data set [9] deals with Human immunodeficiency virus 1. Description: Antiviral activity against HIV-1 RES056 mutant infected in human MT4 cells assessed as protection against virus induced cytopathic effect and measured after 5 days by MTT spectrophotometric assay. Format: functional, organism-based. The note with it: Human immunodeficiency virus 1, MT4, 120 h.
For data set [10], the system named is Human immunodeficiency virus 1. Description: Antiviral activity against HIV-1 F227L-V106A mutant infected in human MT4 cells assessed as protection against virus induced cytopathic effect and measured after 5 days by MTT spectrophotometric assay. In kind it is functional, organism-based. To be noted: Human immunodeficiency virus 1, MT4, 120 h.
A further data set is described as follows: in vitro. The note with it: human, MT4 cells.
Data set [11] concerns Human immunodeficiency virus 1. The data set can be described thus: microbe, parasite or virus in culture. To be noted: Human immunodeficiency virus 1, IIIb, MT4, 120 h.
Description: Antiviral activity against HIV-1 IIIb infected in human MT4 cells assessed as protection against virus induced cytopathic effect and measured after 5 days by MTT spectrophotometric assay

pEC50, pIC50: −log10 of the molar value.

Description for in vitro: Selectivity index, ratio of CC50 for cytotoxicity against human MT4 cells assessed as reduction in cell viability to EC50 for antiviral activity against HIV-1 IIIb infected in human MT4 cells assessed as reduction in virus induced cytopathic effect

With `Cc1cc(C#N)cc(C)c1Oc1ccnc(NC2CCN(C(=O)c3cc4cc(NS(C)(=O)=O)ccc4[nH]3)CC2)n1`, the pEC50 in [1] was under 4.60; in data set [4] it was 5.74; in data set [5] it was 6.27; in data set [6] it was 6.14; in data set [7], 5.42; in data set [8], 6.68. Moreover, the pEC50 was under 4.60 in [9], 5.44 in [10] and 7.44 in data set [11]. For the same molecule, the CC50 at 120 h in data set [2] turned out to be 25 µM. In [3], this molecule gave a pIC50 of 6.89. For the same molecule, in “in vitro”, the selectivity ratio stood at 686.

With `Cc1cc(C)c(Oc2ccnc(NC3CCN(C(=O)c4cc5cc(NS(C)(=O)=O)ccc5[nH]4)CC3)n2)c(C)c1`, the pEC50 in data set [1] is under 4.72; in data set [4], 5.96; in data set [5], 6.92; in data set [6] it was 6.44; in data set [7], 6.12; in data set [8] it was 7.48. The pEC50 is under 4.72 in [9], 5.51 in data set [10] and 8.05 in data set [11]. In [2], the CC50 at 120 h is 19 µM. In addition, the pIC50 in data set [3] was 6.96. Besides, in “in vitro”, the selectivity ratio came out at 2150.

For `CS(=O)(=O)Nc1ccc2[nH]c(C(=O)N3CCC(Nc4nccc(Oc5ccc(Cl)cc5)n4)CC3)cc2c1`, the pEC50 is under 4.82 in data set [1]; 5.09 in data set [4]; 5.08 in data set [5]; under 4.82 in data set [6]; under 4.82 in [7]; 5.35 in data set [8]. Moreover, the pEC50 in data set [9] is under 4.82; in [10] it was under 4.82; in data set [11], 6.13. In data set [2], the CC50 at 120 h was found to be 15 µM. Besides, the negative logarithm of the IC50 (pIC50) in data set [3] is 5.96. The selectivity ratio in “in vitro” is 20.

`Cc1cc(Oc2ccnc(NC3CCN(C(=O)c4cc5cc(NS(C)(=O)=O)ccc5[nH]4)CC3)n2)cc(C)c1Cl`: the pEC50 in data set [1], in data set [4], in data set [5], in data set [6], in [7] and in [8] was under 5.28 in each case. The pEC50 is under 5.28 in data set [9], under 5.28 in data set [10] and 5.89 in data set [11]. Besides, the 50% cytotoxic concentration (CC50) at 120 h in [2] is 5.3 µM. In data set [3], the pIC50 is 5.52. In “in vitro”, the selectivity ratio worked out at 4.

In the case of `Cc1cccc(C)c1Oc1ccnc(NC2CCN(C(=O)c3cc4cc(NS(C)(=O)=O)ccc4[nH]3)CC2)n1`, the pEC50 in [1] was under 4.68; in data set [4], 5.48; in [5], 6.28; in [6], 6.08; in [7], 6.17; in [8] it was 7.10. The pEC50 is under 4.68 in data set [9], 5.57 in [10] and 7.49 in data set [11]. In [2], the CC50 at 120 h was found to be 21 µM. In [3], this molecule showed a pIC50 of 4.92. In the data set “in vitro”, the selectivity ratio turned out to be 678.

Consider `CS(=O)(=O)Nc1ccc2[nH]c(C(=O)N3CCC(Nc4nccc(Oc5ccc(C#N)cc5)n4)CC3)cc2c1`, for which the pEC50 in [1] is under 3.72; in data set [4], under 3.72; in [5] it was under 3.72; in data set [6], under 3.72; in [7], under 3.72; in [8] it was 5.14. The pEC50 in data set [9] is under 3.72; in data set [10], under 3.72; in data set [11], 5.51. In addition, the CC50 at 120 h in data set [2] amounted to 192 µM. Further, the pIC50 in [3] was 5.96. Also, the selectivity ratio in “in vitro” was determined as 62.

As for `Cc1ccccc1Oc1ccnc(NC2CCN(C(=O)c3cc4cc(NS(C)(=O)=O)ccc4[nH]3)CC2)n1`, the negative-log EC50 (pEC50) in [1] was under 4.89; in [4], under 4.89; in data set [5] it was 5.06; in data set [6], 5.05; in data set [7] it was under 4.89; in data set [8] it was 6.00. The pEC50 in data set [9] was under 4.89; in data set [10], under 4.89; in data set [11], 6.48. For the same molecule, the CC50 at 120 h in [2] worked out at 13 µM. In data set [3], this molecule had a pIC50 of 5.07. For the same molecule, in “in vitro”, the selectivity ratio was determined as 41.

Take `CS(=O)(=O)Nc1ccc2[nH]c(C(=O)N3CCC(Nc4nccc(Oc5ccc(Br)cc5F)n4)CC3)cc2c1`: the pEC50 was under 4.10 in data set [1]; 4.49 in data set [4]; 4.64 in [5]; 4.54 in data set [6]; under 4.10 in [7]; 5.52 in data set [8]. Further, the pEC50 in [9] was under 4.10; in data set [10], under 4.10; in [11] it was 6.03. The CC50 at 120 h in data set [2] was determined as 80 µM. The pIC50 in data set [3] was 6.96. The selectivity ratio in “in vitro” came out at 84.

In the case of `CS(=O)(=O)Nc1ccc2[nH]c(C(=O)N3CCC(Nc4nccc(Oc5cccc(Cl)c5)n4)CC3)cc2c1`, the pEC50 in data set [1] was under 4.85; in [4] it was 5.09; in data set [5], 5.09; in data set [6] it was 5.05; in data set [7], 5.04; in data set [8], 5.26. Besides, the pEC50 in data set [9] is under 4.85; in data set [10], 5.06; in data set [11], 6.15. The CC50 at 120 h in data set [2] came out at 14 µM. The pIC50 in [3] is 6.47. In addition, the selectivity ratio in the data set “in vitro” came to 20.

As to `Cc1cccc(Oc2ccnc(NC3CCN(C(=O)c4cc5cc(NS(C)(=O)=O)ccc5[nH]4)CC3)n2)c1`, the pEC50 in data set [1], in data set [4], in data set [5], in data set [6], in data set [7] and in [8] was under 4.57 throughout. Also, the pEC50 was under 4.57 in data set [9], under 4.57 in data set [10] and 5.26 in data set [11]. The CC50 at 120 h in [2] amounted to 27 µM. The pIC50 in [3] is 5.92. For the same molecule, in “in vitro”, the selectivity ratio was found to be 5.

In the case of `CS(=O)(=O)Nc1ccc2[nH]c(C(=O)N3CCC(Nc4nccc(Oc5cccc(C#N)c5)n4)CC3)cc2c1`, the pEC50 in [1] is under 4.54; in [4], under 4.54; in [5], under 4.54; in data set [6], under 4.54; in data set [7], under 4.54; in data set [8], 5.06. Also, the pEC50 was under 4.54 in data set [9], under 4.55 in data set [10] and 5.43 in data set [11]. In data set [2], the CC50 at 120 h turned out to be 29 µM. Moreover, in [3], the pIC50 is 6.22. The selectivity ratio in “in vitro” is 8.

As for `CS(=O)(=O)Nc1ccc2[nH]c(C(=O)N3CCC(Nc4nccc(Oc5ccccc5Cl)n4)CC3)cc2c1`, the pEC50 was under 4.82 in data set [1]; 5.12 in data set [4]; 5.19 in data set [5]; 5.23 in data set [6]; 5.11 in data set [7]; 6.01 in [8]. Further, the pEC50 was under 4.82 in data set [9], 5.08 in [10] and 6.37 in [11]. The CC50 at 120 h in data set [2] amounted to 15 µM. Moreover, the pIC50 in data set [3] is 5.80. Further, the selectivity ratio in the data set “in vitro” was 35.

With `O=C1Nc2ccc(Cl)cc2[C@@](C#CC2CC2)(C(F)(F)F)O1` [EFAVIRENZ], the CC50 at 120 h in data set [2] is over 6.3 µM. Further, the pEC50 in data set [4] is 7.17; in [5], 6.85; in [7], 6.49; in data set [8] it was 8.15; in [9] it was 6.24; in data set [10] it was 6.39.

For the molecule `Cc1cc(C#N)cc(C)c1Oc1nc(Nc2ccc(C#N)cc2)nc(N)c1Br` [ETRAVIRINE], in data set [2], the CC50 at 120 h was over 4.6 µM. In addition, the negative logarithm of the EC50 (pEC50) was 7.92 in [4]; 8.40 in [5]; 7.52 in data set [7]; 7.77 in [8]; 7.00 in [9]; 7.52 in data set [10]. Besides, the selectivity ratio in “in vitro” was over 1430.

Turning to `Nc1ccn([C@@H]2CS[C@H](CO)O2)c(=O)n1` [LAMIVUDINE], in data set [2], the CC50 at 120 h was over 87 µM. In addition, the pEC50 in [4] was 5.77; in data set [5], 5.33; in [6], 5.46; in [7], 5.39; in data set [8], 5.13; in data set [9], 5.00. Besides, the figures for the pEC50 in [10] and in data set [11] were 5.09 and 5.08, respectively. Further, the selectivity ratio in the data set “in vitro” is over 11.

With `Cc1ccnc2c1NC(=O)c1cccnc1N2C1CC1` [NEVIRAPINE], the CC50 at 120 h in data set [2] was over 15 µM. Also, the pEC50 in data set [4] is 5.66; in [5], 5.13; in data set [7], under 4.82; in data set [8], 6.51; in data set [9], under 4.82; in data set [10] it was under 4.82. Also, in [11], the pEC50 was 6.72.

For `Cc1cn([C@H]2C[C@H](N=[N+]=[N-])[C@@H](CO)O2)c(=O)[nH]c1=O` [ZIDOVUDINE], the pEC50 in data set [1] was 7.68; in data set [4] it was 8.05; in data set [5], 7.49; in data set [6], 7.72; in data set [7], 7.64; in data set [9], 7.46. In addition, the pEC50 was 7.59 in [10] and 7.62 in data set [11]. Also, in data set [2], the CC50 at 120 h was over 7.1 µM. The selectivity ratio in “in vitro” was over 290.

The record behind these values is ChEMBL document CHEMBL5321204, “Hybrids of delavirdine and piperdin-4-yl-aminopyrimidines (DPAPYs) as potent HIV-1 NNRTIs: Design, synthesis and biological activities” (Eur J Med Chem, 2023).
